Source: patent US10711000B2 (Fronthera U.S. Pharmaceuticals LLC, priority 2018, dated 2020)
Like-named read-outs stand apart in the source and are kept apart here.

Molecular target: T1, Autotaxin (Homo sapiens, UniProt Q13822)
T1 construct: from tissue; host or cells: pooled human plasma
Test: LPA formation in pooled human plasma (ex vivo autotaxin inhibition)
Format: biochemical
Settings: 2 hours incubation
How it was run: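 Ex vivo: LPA 18:2 and 20:4 levels in compound-treated versus untreated pooled human plasma after 2 h incubation, measured by butanol extraction and negative-mode MRM LC/MS/MS against calibration standards. IC50 from non-linear fit of inhibition versus concentration.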

[1] = LPA 18:2 by LC/MS/MS, read-out: LPA formation (18:2) (IC50)
[2] = LPA 20:4 by LC/MS/MS, read-out: LPA formation (20:4) (IC50)

| Compound | IC50 [1] [nM] | IC50 [2] [nM] |
| --- | --- | --- |
| CCc1nn2ccc(N3CCC4(CC3)CC(C(=O)N3CC(O)C3)C4)cc2c1N(C)c1nc(-c2ccc(F)cc2)c(C#N)s1 [Example 6, 2-[[2-ethyl-5-[2-(3-hydroxyazetidine-1-carbonyl)-7-azaspiro[3.5]nonan-7-yl]pyrazolo[1,5-a]pyridin-3-yl]-methyl-amino]-4-(4-fluorophenyl)thiazole-5-carbonitrile] | ≤ 100 | ≤ 100 |
| CCc1nn2c(C)cc(N3CCC4(CN(C(=O)[C@H]5CCCO5)C4)C3)cc2c1N(C)c1nc(-c2ccc(F)cc2)c(C#N)s1 [Example 49, (R)-2-((2-ethyl-7-methyl-5-(2-(tetrahydrofuran-2-carbonyl)-2,6-diazaspiro[3.4]octan-6-yl)pyrazolo[1,5-a]pyridin-3-yl)(methyl)amino)-4-(4-fluorophenyl)thiazole-5-carbonitrile] | ≤ 100 | ≤ 100 |
| CCc1nn2c(C)cc(N3CC4(CCN(C(=O)[C@H]5CCOC5)C4)C3)cc2c1N(C)c1nc(-c2ccc(F)cc2)c(C#N)s1 [Example 45, (S)-2-((2-ethyl-7-methyl-5-(6-(tetrahydrofuran-3-carbonyl)-2,6-diazaspiro[3.4]octan-2-yl)pyrazolo[1,5-a]pyridin-3-yl)(methyl)amino)-4-(4-fluorophenyl)thiazole-5-carbonitrile] | ≤ 100 | ≤ 100 |
| CCc1nn2c(C)cc(N3CC4(CN(C(=O)OC5CCOC5)C4)C3)cc2c1N(C)c1nc(-c2ccc(F)cc2)c(C#N)s1 (stereo not shown) [Example 34, tetrahydrofuran-3-yl 6-(3-((5-cyano-4-(4-fluorophenyl)thiazol-2-yl)(methyl)amino)-2-ethyl-7-methylpyrazolo[1,5-a]pyridin-5-yl)-2,6-diazaspiro[3.3]heptane-2-carboxylate] | 100 to 500 | 100 to 500 |
| CCc1nn2c(C)cc(N3CC4(CN(C(=O)CO)C4)C3)cc2c1N(C)c1nc(-c2ccc(F)cc2)c(C#N)s1 [Example 29, 2-((2-ethyl-5-(6-(2-hydroxyacetyl)-2,6-diazaspiro[3.3]heptan-2-yl)-7-methylpyrazolo[1,5-a]pyridin-3-yl)(methyl)amino)-4-(4-fluorophenyl)thiazole-5-carbonitrile] | 100 to 500 | 500 to 1000 |
| CCc1nn2c(C)cc(N3CC4(CN(C(=O)C5COC5)C4)C3)cc2c1N(C)c1nc(-c2ccc(F)cc2)c(C#N)s1 [Example 31, 2-((2-ethyl-7-methyl-5-(6-(oxetane-3-carbonyl)-2,6-diazaspiro[3.3]heptan-2-yl)pyrazolo[1,5-a]pyridin-3-yl)(methyl)amino)-4-(4-fluorophenyl)thiazole-5-carbonitrile] | 100 to 500 | 100 to 500 |
| CCc1nn2c(C)cc(N3CCC4(CN(C(=O)C5CCOCC5)C4)C3)cc2c1N(C)c1nc(-c2ccc(F)cc2)c(C#N)s1 [Example 43, 2-((2-ethyl-7-methyl-5-(2-(tetrahydro-2H-pyran-4-carbonyl)-2,6-diazaspiro[3.4]octan-6-yl)pyrazolo[1,5-a]pyridin-3-yl)(methyl)amino)-4-(4-fluorophenyl)thiazole-5-carbonitrile] | ≤ 100 | ≤ 100 |
| CCc1nn2ccc(N3CCN(CC(=O)N(C)C)CC3)cc2c1N(C)c1nc(-c2ccc(F)cc2)c(C#N)s1 [Example 5, 2-(4-(3-((5-cyano-4-(4-fluorophenyl)thiazol-2-yl)(methyl)amino)-2-ethylpyrazolo[1,5-a]pyridin-5-yl)piperazin-1-yl)-N,N-dimethylacetamide] | ≤ 100 | ≤ 100 |
| CCc1nn2c(C)cc(N3CC4(CN(C(=O)[C@@H]5CCOC5)C4)C3)cc2c1N(C)c1nc(-c2ccc(F)cc2)c(C#N)s1 [Example 40, (R)-2-((2-ethyl-7-methyl-5-(6-(tetrahydrofuran-3-carbonyl)-2,6-diazaspiro[3.3]heptan-2-yl)pyrazolo[1,5-a]pyridin-3-yl)(methyl)amino)-4-(4-fluorophenyl)thiazole-5-carbonitrile] | ≤ 100 | ≤ 100 |
| CCc1nn2c(C)cc(N3CC4(CN(C(=O)C5CCOCC5)C4)C3)cc2c1N(C)c1nc(-c2ccc(F)cc2)c(C#N)s1 [Example 41, 2-((2-ethyl-7-methyl-5-(6-(tetrahydro-2H-pyran-4-carbonyl)-2,6-diazaspiro[3.3]heptan-2-yl)pyrazolo[1,5-a]pyridin-3-yl)(methyl)amino)-4-(4-fluorophenyl)thiazole-5-carbonitrile] | ≤ 100 | ≤ 100 |
| CCc1nn2ccc(N3CCN(CC(=O)N4CC[C@@H](O)C4)CC3)cc2c1N(C)c1nc(-c2ccc(F)cc2)c(C#N)s1 [Example 3, (R)-2-((2-ethyl-5-(4-(2-(3-hydroxypyrrolidin-1-yl)-2-oxoethyl)piperazin-1-yl)pyrazolo[1,5-a]pyridin-3-yl)(methyl)amino)-4-(4-fluorophenyl)thiazole-5-carbonitrile] | ≤ 100 | ≤ 100 |
| CCc1nn2c(C)cc(N3CC4(CCN(C(=O)C5CN(C)C5)C4)C3)cc2c1N(C)c1nc(-c2ccc(F)cc2)c(C#N)s1 [Example 47, 2-((2-ethyl-7-methyl-5-(6-(1-methylazetidine-3-carbonyl)-2,6-diazaspiro[3.4]octan-2-yl)pyrazolo[1,5-a]pyridin-3-yl)(methyl)amino)-4-(4-fluorophenyl)thiazole-5-carbonitrile] | ≤ 100 | 100 to 500 |

Second part, the compound after the results:

| IC50 [1] [nM] | IC50 [2] [nM] | Compound |
| --- | --- | --- |
| ≤ 100 | ≤ 100 | CCc1nn2c(C)cc(N3CC4(CN(C(=O)c5cnco5)C4)C3)cc2c1N(C)c1nc(-c2ccc(F)cc2)c(C#N)s1 [Example 57, 2-((2-ethyl-7-methyl-5-(6-(oxazole-5-carbonyl)-2,6-diazaspiro[3.3]heptan-2-yl)pyrazolo[1,5-a]pyridin-3-yl)(methyl)amino)-4-(4-fluorophenyl)thiazole-5-carbonitrile] |
| ≤ 100 | 100 to 500 | CCc1nn2c(C)cc(N3CC4(CN(C(=O)C(O)CO)C4)C3)cc2c1N(C)c1nc(-c2ccc(F)cc2)c(C#N)s1 (stereo not shown) [Example 60, 2-((5-(6-(2,3-dihydroxypropanoyl)-2,6-diazaspiro[3.3]heptan-2-yl)-2-ethyl-7-methylpyrazolo[1,5-a]pyridin-3-yl)(methyl)amino)-4-(4-fluorophenyl)thiazole-5-carbonitrile] |
| 500 to 1000 | 500 to 1000 | CCc1nn2c(C)cc(N3CCC4(CN(C(=O)C5(O)CC5)C4)C3)cc2c1N(C)c1nc(-c2ccc(F)cc2)c(C#N)s1 [Example 54, 2-((2-ethyl-5-(2-(1-hydroxycyclopropane-1-carbonyl)-2,6-diazaspiro[3.4]octan-6-yl)-7-methylpyrazolo[1,5-a]pyridin-3-yl)(methyl)amino)-4-(4-fluorophenyl)thiazole-5-carbonitrile] |
| ≤ 100 | ≤ 100 | CCc1nn2cc(F)c(N3CC4(CN(C(=O)N5CCOCC5)C4)C3)cc2c1N(C)c1nc(-c2ccc(F)cc2)c(C#N)s1 [Example 108, 2-((2-ethyl-6-fluoro-5-(6-(morpholine-4-carbonyl)-2,6-diazaspiro[3.3]heptan-2-yl)pyrazolo[1,5-a]pyridin-3-yl)(methyl)amino)-4-(4-fluorophenyl)thiazole-5-carbonitrile] |
| 100 to 500 | 100 to 500 | CCc1nn2c(C)cc(N3CC4(CN(C(=O)[C@H](C)O)C4)C3)cc2c1N(C)c1nc(-c2ccc(F)cc2)c(C#N)s1 [Example 62, (S)-2-((2-ethyl-5-(6-(2-hydroxypropanoyl)-2,6-diazaspiro[3.3]heptan-2-yl)-7-methylpyrazolo[1,5-a]pyridin-3-yl)(methyl)amino)-4-(4-fluorophenyl)thiazole-5-carbonitrile] |
| ≤ 100 | 100 to 500 | CCc1nn2c(C)cc(N3CC4(CN(C(=O)[C@@H](O)CO)C4)C3)cc2c1N(C)c1nc(-c2ccc(F)cc2)c(C#N)s1 (single isomer, unassigned) [Example 76] |
| 100 to 500 | 100 to 500 | CCc1nn2cc(C)c(N3CC4(CN(C(=O)C(C)(C)O)C4)C3)cc2c1N(C)c1nc(-c2ccc(F)cc2)c(C#N)s1 [Example 98, 2-((2-ethyl-5-(6-(2-hydroxy-2-methylpropanoyl)-2,6-diazaspiro[3.3]heptan-2-yl)-6-methylpyrazolo[1,5-a]pyridin-3-yl)(methyl)amino)-4-(4-fluorophenyl)thiazole-5-carbonitrile] |
| ≤ 100 | ≤ 100 | CCc1nn2cc(C)c(N3CCN(CC(=O)N4CC(O)C4)CC3)cc2c1N(C)c1nc(-c2ccc(F)cc2)c(C#N)s1 [Example 96, 2-((2-ethyl-5-(4-(2-(3-hydroxyazetidin-1-yl)-2-oxoethyl)piperazin-1-yl)-6-methylpyrazolo[1,5-a]pyridin-3-yl)(methyl)amino)-4-(4-fluorophenyl)thiazole-5-carbonitrile] |
| 100 to 500 | 100 to 500 | CCc1nn2c(C)cc(N3CC4(C3)CN(S(C)(=O)=O)C4)cc2c1N(C)c1nc(-c2ccc(F)cc2)c(C#N)s1 [Example 71] |
| 100 to 500 | 100 to 500 | CCc1nn2c(C)cc(N3CC4(CN(C(=O)[C@@H](C)O)C4)C3)cc2c1N(C)c1nc(-c2ccc(F)cc2)c(C#N)s1 [Example 63, (R)-2-((2-ethyl-5-(6-(2-hydroxypropanoyl)-2,6-diazaspiro[3.3]heptan-2-yl)-7-methylpyrazolo[1,5-a]pyridin-3-yl)(methyl)amino)-4-(4-fluorophenyl)thiazole-5-carbonitrile] |
| ≤ 100 | ≤ 100 | CCc1nn2c(C)cc(N3CCC4(CN(C(=O)[C@H]5CCOC5)C4)C3)cc2c1N(C)c1nc(-c2ccc(F)cc2)c(C#N)s1 [Example 51, (S)-2-((2-ethyl-7-methyl-5-(2-(tetrahydrofuran-3-carbonyl)-2,6-diazaspiro[3.4]octan-6-yl)pyrazolo[1,5-a]pyridin-3-yl)(methyl)amino)-4-(4-fluorophenyl)thiazole-5-carbonitrile] |
